Literature values in patent publication US5032586A, “7-keto or hydroxy 3,5-diene steroids as inhibitors of steroid 5-alpha reductase” (SmithKline Beecham Corporation, priority 1989, dated 1991).

System: 5-α-Reductase
Conditions: for Type of inhibition (Reversible/Irreversible): Table 1, printed with Ki; for Ki: literature values, Table 1

CCN(CC)C(=O)[C@H]1CC[C@H]2[C@@H]3CC[C@H]4N(C)C(=O)CC[C@]4(C)[C@H]3CC[C@]12C [(4)]
Type of inhibition (Reversible/Irreversible): Reversible
Ki: 5 nM

C=C1C[C@@H]2[C@H](CC[C@@]3(C)[C@H]2CC[C@]3(OC(C)=O)C(C)=O)[C@@]2(C)CCC(=O)C=C12 [(5)]
Type of inhibition (Reversible/Irreversible): Irreversible
Inhibition of steroid 5-α-reductase, in words (literature description): timedependent inactivator of steroid 5-α-reductase
Ki: 1250 nM
